The text below walks through data of patent publication US8338565B2, “Macrocyclic compounds for inhibition of tumor necrosis factor alpha” (Ensemble Therapeutics Corporation, priority 2008, dated 2012).

SMILES strings stand for the structures. Numbered stars: 1 amine (or outer) side, 2 acyl side, 3 side chain; on linkers, the order of the positions; unused ones are H or OH. Bridge positions count the residues as written; N and C are the ends. Square brackets hold non-standard residues; d marks the D form. Peptide text beside a SMILES is read from it. * marks the point of attachment. Tartaroyl(2R,3R-(OAc)2) = CC(=O)O[C@@H](C(=O)[*:1])[C@@H](OC(C)=O)C(=O)[*:2]; Phe(4-CF3) = N[C@@H](Cc1ccc(C(F)(F)F)cc1)C(=O)O; Bip = N[C@@H](Cc1ccc(-c2ccccc2)cc1)C(=O)O; dBip = N[C@H](Cc1ccc(-c2ccccc2)cc1)C(=O)O; dPhe(4-NH2) = Nc1ccc(C[C@@H](N)C(=O)O)cc1; Phe(4-Br) = N[C@@H](Cc1ccc(Br)cc1)C(=O)O; Phe(4-NH2) = Nc1ccc(C[C@H](N)C(=O)O)cc1; 1Nal = N[C@@H](Cc1cccc2ccccc12)C(=O)O; d(hPhe) = N[C@H](CCc1ccccc1)C(=O)O; hPhe = N[C@@H](CCc1ccccc1)C(=O)O; 2Thi = N[C@@H](Cc1cccs1)C(=O)O; d2Thi = N[C@H](Cc1cccs1)C(=O)O; Suc = O=C(CCC(=O)[*:2])[*:1]; Bn = c1ccc(C*)cc1; GABA = NCCCC(=O)O

One experiment deals with T1, TNFα / TNFα receptor (TNFα R1/Fc) (Homo sapiens, UniProt P01375).
T1 construct: purchased R&D Systems
T1 sequence (P01375 77-233 limits assumed, species assumed): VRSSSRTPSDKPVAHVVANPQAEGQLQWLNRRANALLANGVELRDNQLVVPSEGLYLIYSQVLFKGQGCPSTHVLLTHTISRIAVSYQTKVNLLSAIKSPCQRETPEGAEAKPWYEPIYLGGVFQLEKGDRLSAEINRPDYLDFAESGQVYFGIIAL
Kind of experiment: Inhibition of binding of TNFα to the TNFα receptor (plate ELISA competition). The conditions noted are these: Activity (IC50, inhibition of TNFα binding to TNFα R1/Fc), Table 2. Summed up: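 Compound dilutions were preincubated 30 min at RT with 8.33 nM TNFα R1/Fc in PBST with 2% DMSO, then added to wells coated with 15 nM TNFα for 30 min. Bound receptor was detected with HRP anti-human Fc and TMB, read as A450.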
On the technique in general: ELISA stands for enzyme-linked immunosorbent assay.
`O=C1COc2ccc(cc2)C[C@@H](C(=O)N[C@H](Cc2ccccc2)C(=O)O)NC(=O)[C@H](CCc2ccccc2)NC(=O)[C@@H](Cc2ccc(-c3ccccc3)cc2)NC(=O)[C@H](Cc2ccncc2)N1` [Compound 553] showed an IC50 of less than 10 µM.

For the compound `C[C@@H](C(=O)O)N(C)C(=O)[C@@H]1Cc2ccc(cc2)OCC(=O)N[C@@H](Cc2cccs2)C(=O)N[C@H](Cc2ccc(-c3ccccc3)cc2)C(=O)N[C@@H](CCc2ccccc2)C(=O)N1` [Compound 575], the IC50 was less than 10 µM.

The same experiment, now with this note: Table 2; read-out: Activity (IC50, inhibition of TNFα binding to TNFα R1/Fc).
Regarding `C[C@H](NC(=O)[C@@H]1Cc2ccc(cc2)NC(=O)CCC(=O)N[C@H](Cc2cccs2)C(=O)N[C@@H](Cc2ccc(-c3ccccc3)cc2)C(=O)N[C@H](CCc2ccccc2)C(=O)N1)C(=O)O` [Compound 447] ([d2Thi][Bip][d(hPhe)][Phe(4-NH2)]A-OH; linker N-4 via Suc), the IC50 was more than 100 µM.

As to `O=C1CCC(=O)N[C@H](COCc2ccccc2)C(=O)N[C@@H](Cc2ccc(C(F)(F)F)cc2)C(=O)N[C@H](Cc2ccccc2)C(=O)N[C@H](C(=O)O)Cc2ccc(cc2)N1` [Compound 137] ([dS](Bn)[Phe(4-CF3)][dF][Phe(4-NH2)]-OH; linker N-4 via Suc), the IC50 lay in the range of 30 to 100 µM.

Turning to `O=C1COc2ccc(cc2)C[C@@H](C(=O)N[C@H](Cc2ccccc2)C(=O)O)NC(=O)[C@H](Cc2ccccc2F)NC(=O)[C@@H](Cc2ccc(-c3ccccc3)cc2)NC(=O)[C@H](Cc2cccs2)N1` [Compound 587], the IC50 is less than 10 µM.

Turning to `O=C1CCC(=O)N[C@H](CCc2ccccc2)C(=O)N[C@@H](Cc2ccc(Br)cc2)C(=O)N[C@H](Cc2ccccc2)C(=O)N[C@@H](C(=O)N[C@@H](Cc2ccccc2)C(=O)O)Cc2ccc(cc2)N1` [Compound 440] ([d(hPhe)][Phe(4-Br)][dF][dPhe(4-NH2)]F-OH; linker N-4 via Suc), the IC50 lay within 10 to 30 µM.

`O=C1COc2ccc(cc2)C[C@@H](C(=O)O)NC(=O)[C@H](Cc2ccccc2F)NC(=O)[C@@H](Cc2ccc(-c3ccccc3)cc2)NC(=O)[C@H](Cc2cccs2)N1` [Compound 625]: the IC50 was less than 10 µM.

Turning to `O=C1COc2ccc(cc2)C[C@@H](C(=O)O)NC(=O)[C@H](Cc2ccccc2)NC(=O)[C@@H](Cc2ccc(-c3ccccc3)cc2)NC(=O)[C@@H](Cc2cccs2)N1` [Compound 211], the IC50 fell in the range of 30 to 100 µM.

`O=C1COc2ccc(cc2)C[C@@H](C(=O)O)NC(=O)[C@H](CCc2ccccc2)NC(=O)[C@@H](Cc2ccc(-c3ccccc3)cc2)NC(=O)[C@H](Cc2cscn2)N1` [Compound 696]: the IC50 is less than 10 µM.

Take `O=C(O)CCCNC(=O)[C@@H]1Cc2ccc(cc2)OCC(=O)N[C@@H](Cc2ccncc2)C(=O)N[C@H](Cc2ccc(-c3ccccc3)cc2)C(=O)N[C@@H](Cc2ccccc2F)C(=O)N1` [Compound 719]: the IC50 is less than 10 µM.

Consider `CC(=O)O[C@H]1C(=O)Nc2ccc(cc2)C[C@H](C(=O)N[C@@H](Cc2ccccc2)C(=O)O)NC(=O)[C@@H](CCc2ccccc2)NC(=O)[C@H](Cc2ccc(-c3ccccc3)cc2)NC(=O)[C@@H](Cc2cccs2)NC(=O)[C@@H]1OC(C)=O` [Compound 409] ([d2Thi][Bip][d(hPhe)][dPhe(4-NH2)]F-OH; linker N-4 via Tartaroyl(2R,3R-(OAc)2)), for which the IC50 is less than 10 µM.

Regarding `O=C(Nc1ccc(-c2ccc(C[C@@H]3NC(=O)[C@@H](Cc4cccs4)NC(=O)[C@H](O)[C@@H](O)C(=O)Nc4ccc(cc4)C[C@@H](C(=O)O)NC(=O)[C@@H](Cc4ccccc4)NC3=O)cc2)cc1)OCc1ccccc1` [Compound 336], the IC50 lay within 10 to 30 µM.

`O=C(O)CCCNC(=O)[C@H]1Cc2ccc(cc2)OCC(=O)N[C@@H](Cc2c[nH]c3ccccc23)C(=O)N[C@H](Cc2ccc(-c3ccccc3)cc2)C(=O)N[C@@H](Cc2c[nH]c3ccccc23)C(=O)N1` [Compound 716]: the IC50 is less than 10 µM.

Consider `O=C1COc2ccc(cc2)C[C@@H](C(=O)N[C@@H](CO)C(=O)O)NC(=O)[C@H](Cc2ccc(O)cc2)NC(=O)[C@@H](Cc2ccc(-c3ccccc3)cc2)NC(=O)[C@H](Cc2cccs2)N1` [Compound 563], for which the IC50 lay within 30 to 100 µM.

As for `O=C1CCC(=O)N[C@H](CCc2ccccc2)C(=O)N[C@@H](Cc2ccc(-c3ccccc3Cl)cc2)C(=O)N[C@H](Cc2ccccc2)C(=O)N[C@H](C(=O)O)Cc2ccc(cc2)N1` [Compound 170], the IC50 was in the range of 30 to 100 µM.

`O=C(O)CCCNC(=O)[C@H]1Cc2ccc(cc2)OCC(=O)N[C@@H](Cc2ccncc2)C(=O)N[C@H](Cc2ccc(-c3ccccc3)cc2)C(=O)N[C@@H](Cc2c[nH]c3ccccc23)C(=O)N1` [Compound 717]: the IC50 fell in the range of 10 to 30 µM.

`O=C1CCC(=O)N[C@H](Cc2cccs2)C(=O)N[C@@H](Cc2ccc(-c3ccccc3)cc2)C(=O)N[C@H](Cc2ccc(O)cc2)C(=O)N[C@H](C(=O)O)Cc2ccc(cc2)N1` [Compound 59] ([d2Thi][Bip][dY][Phe(4-NH2)]-OH; linker N-4 via Suc): the IC50 is more than 100 µM.

For the compound `O=C1COc2ccc(cc2)C[C@@H](C(=O)O)NC(=O)[C@@H](Cc2ccc(-c3ccccc3)cc2)NC(=O)[C@H](Cc2ccc(-c3ccccc3)cc2)NC(=O)[C@@H](Cc2cccs2)N1` [Compound 530], the IC50 was more than 100 µM.

As for `COc1ccc(C[C@@H]2NC(=O)[C@@H](Cc3ccc(-c4ccccc4)cc3)NC(=O)[C@H](Cc3ccncc3)NC(=O)COc3ccc(cc3)C[C@@H](C(=O)O)NC2=O)cc1` [Compound 639], the IC50 was less than 10 µM.

For `O=C1N[C@H](Cc2ccccc2)C(=O)N[C@@H](C(=O)O)Cc2ccc(cc2)NC(=O)[C@H](O)[C@@H](O)C(=O)N[C@@H](Cc2cccs2)C(=O)N[C@H]1Cc1ccc(-c2ccccc2)cc1` [Compound 277], the IC50 is more than 100 µM.

Take `O=C1COc2ccc(cc2)C[C@@H](C(=O)O)NC(=O)[C@@H](CCc2ccccc2)NC(=O)[C@H](Cc2ccc(C(F)(F)F)cc2)NC(=O)[C@@H](CCc2ccccc2)N1` [Compound 151]: the IC50 fell in the range of 30 to 100 µM.

Take `CC(=O)O[C@H]1C(=O)Nc2ccc(cc2)C[C@H](C(=O)N[C@@H](Cc2ccccc2)C(=O)O)NC(=O)[C@H](CCc2ccccc2)NC(=O)[C@@H](Cc2ccc(-c3ccccc3)cc2)NC(=O)[C@H](Cc2cccs2)NC(=O)[C@@H]1OC(C)=O` [Compound 411] ([2Thi][dBip][hPhe][dPhe(4-NH2)]F-OH; linker N-4 via Tartaroyl(2R,3R-(OAc)2)): the IC50 was more than 100 µM.

As to `O=C(O)CNC(=O)[C@@H]1Cc2ccc(cc2)OCC(=O)N[C@@H](Cc2cccs2)C(=O)N[C@H](Cc2ccc(-c3ccccc3)cc2)C(=O)N[C@@H](CCc2ccccc2)C(=O)N1` [Compound 472], the IC50 was less than 10 µM.

Regarding `O=C(O)CCCNC(=O)[C@@H]1Cc2ccc(cc2)NC(=O)CCC(=O)N[C@H](CCc2ccccc2)C(=O)N[C@@H](Cc2ccc(-c3ccccc3)cc2)C(=O)N[C@H](Cc2ccccc2)C(=O)N1` [Compound 354] ([d(hPhe)][Bip][dF][Phe(4-NH2)][GABA]-OH; linker N-4 via Suc), the IC50 was more than 100 µM.

For the compound `O=C1CCC(=O)N[C@H](CCc2ccccc2)C(=O)N[C@@H](Cc2ccc(OCc3ccccc3)cc2)C(=O)N[C@H](Cc2ccccc2)C(=O)N[C@@H](C(=O)O)Cc2ccc(cc2)N1` [Compound 173] ([d(hPhe)]Y(Bn)[dF][dPhe(4-NH2)]-OH; linker N-4 via Suc), the IC50 lay within 10 to 30 µM.

For the compound `O=C1CCC(=O)N[C@H](CCc2ccccc2)C(=O)N[C@@H](Cc2cccc3ccccc23)C(=O)N[C@H](Cc2ccccc2)C(=O)N[C@H](C(=O)O)Cc2ccc(cc2)N1` [Compound 108] ([d(hPhe)][1Nal][dF][Phe(4-NH2)]-OH; linker N-4 via Suc), the IC50 is 10 to 30 µM.
